Experimental data reported in US9856247B2, “4-methyl-dihydropyrimidines for the treatment and prophylaxis of Hepatitis B virus infection” (Hoffmann-La Roche Inc., priority 2012, dated 2018).

What was measured:
[1] = Stability in mouse liver homogenate; assay type: in vitro ADME, CD-1 mouse
Procedure: In this experiment, fresh mouse liver sample was homogenized by adding saline (1 g liver tissue: 5 mL saline) immediately after collection. After centrifuging for 10 minutes at 14000 rpm, the pooled supernatant was used to prepare liver homogenate solutions. […] Then, they were incubated at rt. After incubation time of 0, 15 and 30 minutes, 180 μl aliquots of MeOH was added into 20 μl of homogenate, respectively. All these samples were vortex mixed for 5 minutes at 1500 rpm and centrifuged for 10 minutes at 14000 rpm. The supernatants were transferred into a 96-well plate for LC-MS/MS analysis.
The Chromatographic separation was achieved on a Chromolith Performance RP-18 endcapped (3×100 mm) at room temperature.
Data processing was performed with Agilent MassHunter Workstation Data Acquisition B.04.00 and Agilent MassHunter Workstation Qualitative Analysis B.04.00.

[2] = system: HBV; settings: HBV infected transgenic mouse or humanized mouse models; cited from earlier work
[3] = Incubation with rat liver microsomes (metabolite formation); assay type: in vitro ADME, male Wister rat; settings: 5 μM, 1 mM NADPH, 60 minutes
Procedure: (§1) In this experiment, pooled liver microsomes (20 mg/ml) from human, male Wister rat and male CD-1 mouse were obtained from BD Bioscience (Franklin Lakes, N.J. USA). Incubation reaction mixtures contained a final concentration of 0.1M sodium phosphate buffer (pH 7.4), 0.5 mg/ml microsomal protein, 5 μM of the tested compounds and 1 mM NADPH in a total volume of 400 μl. The incubations were done for 60 minutes and 300 μl of the mixtures was transferred to 150 μl of ice cold methanol to terminate reactions. After vortexes for 3 minutes and centrifuged at 4000 rpm at 4° C. for 10 minutes, the clear supernatant was used directly for analysis. The samples were analyzed by Applied Biosystems API 3200 Q TRAP LC/MS/MS system using electrospray ionization mode.

[4] = Incubation with human liver microsomes (metabolite formation); assay type: in vitro ADME; settings: 5 μM, 1 mM NADPH, 60 minutes
Procedure: as §1

[5] = Incubation with mouse liver microsomes (metabolite formation); assay type: in vitro ADME, male CD-1 mouse; settings: 5 μM, 1 mM NADPH, 60 minutes
Procedure: as §1

[6] = system: HBV DNA; experiment: Anti-HBV activity in HepDE19 cells (HBV DNA dot-blot); assay type: cell-based, Hepatitis B virus (HBV); settings: Hepatitis B virus, 120 h; HepDE19 cells, five days after compound treatment, concentration that inhibited HBV DNA by 50%; read-out: HepDe19 EC50
From the text: Cells and culture conditions: HepDE19 (Haitao Guo et al, Journal of Virology, 81, November 2007, 12472-12484; Richeng Mao et al, Journal of Virology, 85, January 2011, 1048-1057) cells were derived from HepG2 (ATCC, American Type Culture Collection) cells through transfection with pTet-off plasmid (Clontech) that expresses the Tet-responsive transcriptional activator and pTREHBVDE plasmid in which HBV pgRNA expression is controlled by a CMV early promoter with a tetracycline-responsive element. The transfected cells were selected with G418 (also known as Genticin, purchased from Invitrogen). […] These cells were maintained in Dulbecco's modified Eagle's medium (DMEM)-F12 medium (Invitrogen) supplemented with 10% fetal bovine serum, 100 U/ml penicillin, and 100 μg/ml streptomycin, 0.5 mg/ml of G418 and 1 μg/ml tetracycline.
Anti-HBV activity and cytotoxicity: HepDE19 cells were seeded into 96-well plates (3×10^4 cells/well) with tetracycline-free medium and incubated overnight at 37° C. The test or control compounds were serially half-log diluted with medium and added into the plates (the final concentration of DMSO kept at 0.5% in each well). Five days after compound treatment, cells were washed with PBS and lysed with 50 mM Tris-1 mM EDTA-0.2% CA-630 (pH 8.0) at 37° C. for 20 min. After centrifugation to remove nuclei and other debris, the supernatant was transferred into a new plate and incubated with 2M NaOH/20×SSC (3M NaCl, 0.3M Sodium citrate, pH7.0) at rt for 30 min. Then the samples were transferred to nylon membrane and neutralized with 1M Tris (pH7.4)/2M NaCl. The presence of HBV DNA was detected by dot-blot with DIG-labeled HBV specific DNA probe and quantified by dot density. The compound concentrations that inhibited HBV DNA by 50% (EC50) were determined (See Table 1).

[7] = in vitro; settings: human
Procedure: The transfected cells were selected with G418 (also known as Genticin, purchased from Invitrogen). […] These cells were maintained in Dulbecco's modified Eagle's medium (DMEM)-F12 medium (Invitrogen) supplemented with 10% fetal bovine serum, 100 U/ml penicillin, and 100 μg/ml streptomycin, 0.5 mg/ml of G418 and 1 μg/ml tetracycline.
To determine if the anti-HBV effect of compound is due to cytotoxicity, HepDE 19 cells (5×10^3 cells/well) were seeded into 96-well plates and compounds were treated as described above. […] Four hours after incubation at 37° C., the absorbance at wavelengths of 450 nm and 630 nm (OD450 and OD630) was recorded by a plate reader.

Row | Structure (SMILES) | EC50 [6] [µM] | CC50 at 5 days [7] [µM] | further results
1 | COC(=O)C1=C(C)NC(c2ncc(F)cc2F)=N[C@H]1c1ccc(F)cc1Cl [Bay 41-4109] | – | – | Percentage to 0 min ([1]; 100 ng/mL, incubation time 0 min): 100%; Percentage to 0 min ([1]; 100 ng/mL, incubation time 15 min, rt): 1.84%; Percentage to 0 min ([1]; 300 ng/mL, incubation time 0 min): 100%; Percentage to 0 min ([1]; 300 ng/mL, incubation time 30 min, rt): 0%; Percentage to 0 min ([1]; 1000 ng/mL, incubation time 0 min): 100%; Percentage to 0 min ([1]; 1000 ng/mL, incubation time 15 min, rt): 1.90%; Percentage to 0 min ([1]; 1000 ng/mL, incubation time 30 min, rt): 0.16%; compound detected after incubation ([1]; 15 minutes room temperature incubation, at three different concentration levels): About 2%; stability in liver homogenate treated with saline ([1]; conclusion in words): not stable; in vivo efficacy (HBV DNA reduction) [2]: demonstrated in vivo efficacy with HBV DNA reduction; conversion to pyrimidine product XLVI [3]: oxidized to pyrimidine product XLVI; conversion to pyrimidine product XLVI [4]: converted to XLVI; conversion to pyrimidine product XLVI [5]: oxidized to pyrimidine product XLVI
2 | CCOC(=O)C1=C(CN2CC(F)(F)C[C@H]2C(=O)O)NC(c2nccs2)=N[C@@]1(C)c1ccc(F)c(F)c1 [Example 24, (S)-6-((S)-2-carboxy-4,4-difluoro-pyrrolidin-1-ylmethyl)-4-(3,4-difluoro-phenyl)-4-methyl-2-thiazol-2-yl-1,4-dihydro-pyrimidine-5-carboxylic acid ethyl ester] | 0.8 | ≥ 100 | –
3 | COC(=O)C1=C(CN2CC(F)(F)C[C@H]2C(=O)O)NC(c2cc(F)cs2)=N[C@@]1(C)c1ccc(F)cc1 [Example 43, (S)-6-((S)-2-carboxy-4,4-difluoro-pyrrolidin-1-ylmethyl)-4-(4-fluoro-phenyl)-2-(4-fluoro-thiophen-2-yl)-4-methyl-1,4-dihydro-pyrimidine-5-carboxylic acid methyl ester] | 0.131 | ≥ 100 | –
4 | COC(=O)C1=C(CN2CC(F)(F)C[C@H]2C(=O)O)NC(c2ccon2)=NC1(C)c1ccc(F)cc1 (stereo partly drawn) [Example 35, 6-((S)-2-carboxy-4,4-difluoro-pyrrolidin-1-ylmethyl)-4-(4-fluoro-phenyl)-2-isoxazol-3-yl-4-methyl-1,4-dihydro-pyrimidine-5-carboxylic acid methyl ester] | 15 | ≥ 100 | –
5 | COC(=O)C1=C(CN2CCC(F)(F)CC2C(=O)O)NC(c2nccs2)=N[C@@]1(C)c1ccc(F)cc1 (stereo partly drawn) [Example 26, (S)-6-(2-carboxy-4,4-difluoro-piperidin-1-ylmethyl) 4-(4-fluoro-phenyl)-4-methyl-2-thiazol-2-yl-1,4-dihydro-pyrimidine-5-carboxylic acid methyl ester] | 1.97 | ≥ 100 | –
6 | COC(=O)C1=C(CN2CC(F)(F)C[C@H]2C(=O)OC)NC(c2ccc(F)cn2)=NC1(C)c1ccc(F)cc1 (stereo in doubt) [Example 17, 6-(4,4-Difluoro-2-methoxycarbonyl-pyrrolidin-1-ylmethyl)-4-(4-fluoro-phenyl)-2-(5-fluoro-pyridin-2-yl)-4-methyl-1,4-dihydro-pyrimidine-5-carboxylic acid methyl ester] | 0.59 | 90 | –
7 | COC(=O)C1=C(CN2C[C@H](F)C[C@H]2C(=O)O)NC(c2nccs2)=N[C@@]1(C)c1ccc(F)cc1 [Example 34, (S)-6-((2S,4R)-2-Carboxy-4-fluoro-pyrrolidin-1-ylmethyl)-4-(4-fluoro-phenyl)-4-methyl-2-thiazol-2-yl-1,4-dihydro-pyrimidine-5-carboxylic acid methyl ester] | 2.84 | ≥ 100 | –
8 | COC(=O)C1=C(CN2CCOC[C@H]2C(=O)O)NC(c2nccs2)=NC1(C)c1ccc(F)c(F)c1 (some centres unmarked) [Example 16, 4-[6-(3,4-Difluoro-phenyl)-5-methoxycarbonyl-6-methyl-2-thiazol-2-yl-3,6-dihydro-pyrimidin-4-ylmethyl]-morpholine-3-carboxylic acid] | 0.25 | > 100 | –
9 | COC(=O)C1=C(CN2CC(F)(F)CC2CCCO)NC(c2nccs2)=N[C@@]1(C)c1ccc(F)cc1 (stereo partly drawn) [Example 56, (S)-6-[4,4-difluoro-2-(3-hydroxy-propyl)-pyrrolidin-1-ylmethyl]-4-(4-fluoro-phenyl)-4-methyl-2-thiazol-2-yl-1,4-dihydro-pyrimidine-5-carboxylic acid methyl ester] | 0.66 | 90 | –
10 | CCOC(=O)C1=C(CN2CCOC[C@H]2C(=O)O)NC(c2nccs2)=NC1(C)c1ccc(F)c(F)c1 (stereo partly drawn) [Example 29, (S)-4-[6-(3,4-difluoro-phenyl)-5-ethoxycarbonyl-6-methyl-2-thiazol-2-yl-3,6-dihydro-pyrimidin-4-ylmethyl]-morpholine-3-carboxylic acid] | 3.98 | ≥ 100 | –
11 | COC(=O)C1=C(CN2CC(F)(F)C[C@@]2(C)C(=O)O)NC(c2nccs2)=N[C@]1(C)c1ccc(F)cc1 [Example 36, (R)-6-((S)-2-carboxy-4,4-difluoro-2-methyl-pyrrolidin-1-ylmethyl)-4-(4-fluoro-phenyl)-4-methyl-2-thiazol-2-yl-1,4-dihydro-pyrimidine-5-carboxylic acid methyl ester] | 7.49 | ≥ 100 | –
12 | COC(=O)C1=C(CN(CC(=O)O)CC(F)(F)F)NC(c2nccs2)=N[C@@]1(C)c1ccc(F)cc1 [Example 44, (S)-6-{[carboxymethyl-(2,2,2-trifluoro-ethyl)-amino]-methyl}-4-(4-fluoro-phenyl)-4-methyl-2-thiazol-2-yl-1,4-dihydro-pyrimidine-5-carboxylic acid methyl ester] | 21.5 | ≥ 100 | –
13 | COC(=O)C1=C(CN2CC(F)(F)C[C@@]2(C)C(=O)O)NC(c2nccs2)=N[C@@]1(C)c1ccc(F)cc1 [Example 20, (S)-6-((S)-2-Carboxy-4,4-difluoro-2-methyl-pyrrolidin-1-ylmethyl)-4-(4-fluoro-phenyl)-4-methyl-2-thiazol-2-yl-1,4-dihydro-pyrimidine-5-carboxylic acid methyl ester] | 2.8 | > 100 | –
14 | COC(=O)C1=C(CN2CC(F)(F)C[C@H]2C(=O)O)NC(c2ccc(F)cn2)=N[C@@]1(C)c1ccc(F)cc1 [Example 18, (S)-6-((S)-2-Carboxy-4,4-difluoro-pyrrolidin-1-ylmethyl)-4-(4-fluoro-phenyl)-2-(5-fluoro-pyridin-2-yl)-4-methyl-1,4-dihydro-pyrimidine-5-carboxylic acid methyl ester] | 0.57 | 25 | –
15 | C[C@@]1(c2ccc(F)c(F)c2)N=C(c2nccs2)NC(CN2CC(F)(F)C[C@H]2C(=O)O)=C1C#N [Example 23, (S)-1-[(S)-5-Cyano-6-(3,4-difluoro-phenyl)-6-methyl-2-thiazol-2-yl-3,6-dihydro-pyrimidin-4-ylmethyl]-4,4-difluoro-pyrrolidine-2-carboxylic acid] | 7 | > 100 | –
